# Several values for one entry are separate records, joined by “and”; a condition that tells them apart may be missing. Equal entries are not always repeated.
# Key:
# [1] = Test Example 6: blood concentration after 7-day intraperitoneal administration; assay type: in vivo, mice (C57BL/6J); conditions: intraperitoneal 3 mg/kg/day for 7 days; 24 hours after the 7th administration; individual mice
# Method: Sirolimus (3 mg/kg/day) or a placebo (saline) was intraperitoneally administered to mice (C57BL/6J, body weight: 20 g) once a day for 7 days. After 24 hours from the administration on the 7th day, blood was collected from each of the mice, and blood sirolimus concentration was measured.
# (§1) The measurement of the blood concentration was performed by the same method as in Test Example 3. The blood concentration after the topical application to the skin was one 26th in terms of average value as compared to the blood concentration after systemic administration by the intraperitoneal administration. […] The action mechanism by which epileptic seizures are suppressed through systemic administration and the mechanism by which epileptic seizures are suppressed through topical application may differ from each other.
# [2] = Test Example 6: blood concentration after 7-day topical application; assay type: in vivo, ICR mice; conditions: 0.2 wt % sirolimus gel 5 mg (10 μg sirolimus) on shaved forehead once a day, 7 days; 24 hours after last; individual mice
# Method: ICR mice (body weight: about 37 g) were obtained (Japan SLC, Inc.). The 0.2 wt % sirolimus gel prepared in Production Example 3 or a placebo (only the base) was applied to their shaved forehead once a day at 5 mg each (10 μg in terms of sirolimus). After 24 hours from the administration on the 7th day, blood was collected from each of the mice, and blood sirolimus concentration was measured.
# as §1
# [3] = test system: Tuberous sclerosis complex model mice; experiment: Test Example 5: number of epileptic seizures (intraperitoneal administration); assay type: in vivo; conditions: intraperitoneal 3 mg/kg/day once a day for 7 days; observed 2 minutes 5 times per day; n=6
# Method: FIG. 3 is a graph showing results obtained by intraperitoneally administering sirolimus (3 mg/kg/day) or saline to model mice and control mice (normal mice) once a day for 7 days (n=6 in each group). Homo represents tuberous sclerosis complex model mice, and Ct represents control mice (normal mice). *P<0.05, **P<0.01
# Sirolimus (3 mg/kg/day) or a placebo (saline) was intraperitoneally administered to model mice and normal mice similar to those in Test Example 1 once a day for 7 days. The number of seizures was measured by observing the mice for 2 minutes 5 times per day (n=6 in each group). […] The number of seizures over 7 days in the group intraperitoneally administered sirolimus was about 5, which was nearly equal to the number of seizures in the case where the 0.2 wt % sirolimus gel was administered to the forehead once a day at 5 mg (10 μg in terms of sirolimus).
structure (smiles),measurement,setting,value
"CO[C@H]1C[C@@H]2CC[C@@H](C)[C@@](O)(O2)C(=O)C(=O)N2CCCC[C@H]2C(=O)O[C@H]([C@H](C)C[C@@H]2CC[C@@H](O)[C@H](OC)C2)CC(=O)[C@H](C)/C=C(\C)[C@@H](O)[C@@H](OC)C(=O)[C@H](C)C[C@H](C)/C=C/C=C/C=C/1C [Sirolimus, sirolimus]",blood sirolimus concentration,[1],94.43 ng/ml · blood and 85.59 ng/ml · blood and 48.55 ng/ml · blood and 216.83 ng/ml · blood
same,blood sirolimus concentration,[2],3.87 ng/ml · blood and 2.85 ng/ml · blood and 5.98 ng/ml · blood
same,number of seizures over 7 days,[3],about 5

# — patent US20240058365A1, “External Preparation for Treating Epilepsy or Autism Spectrum Disorder” (OSAKA UNIVERSITY, priority 2019, published 2024)
